Results reported in the supplement of paper PMC11061612.

Assays:
[1] = compound: C1CC(C1)(C(=O)[O-])C(=O)[O-].N.N.[Pt+2] [Carboplatin]; conditions: max 10 µM
Method in brief: (§1)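 Following 24 hours at 37°C and 5% CO2, cancer cell lines in 1536-well plates with 7.5 μl DMEM/F12 or RPMI and 10% FBS were dosed for 72 hours, final DMSO typically being 0.2%. CellTiter-Glo 2.0 luminescence, scaled between blank-well and DMSO-well means, gave the viability readout. Dose responses were fitted to a two-parameter logistic curve with a non-linear mixed effects model, and the single-agent IC50 was derived from this fit.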

[2] = compound: C1CN(CCC1(C(=O)N[C@@H](CCO)C2=CC=C(C=C2)Cl)N)C3=NC=NC4=C3C=CN4 [AZD5363]; conditions: max 10 µM
Method in brief: as §1

[3] = compound: C=CCn1c(=O)c2cnc(Nc3ccc(N4CCN(C)CC4)cc3)nc2n1-c1cccc(C(C)(C)O)n1 [AZD1775]; conditions: max 3 µM
Method in brief: as §1

[4] = compound: CC(=O)Nc1cccc(-n2c(=O)n(C3CC3)c(=O)c3c(Nc4ccc(I)cc4F)n(C)c(=O)c(C)c32)c1 [Trametinib]; conditions: max 1 µM
Method in brief: as §1

[5] = compound: CC(=O)O[C@H]1C(=O)[C@@]2(C)[C@H]([C@H](OC(=O)c3ccccc3)[C@]3(O)C[C@H](OC(=O)[C@H](O)[C@@H](NC(=O)c4ccccc4)c4ccccc4)C(C)=C1C3(C)C)[C@]1(OC(C)=O)CO[C@@H]1C[C@@H]2O [Paclitaxel]; conditions: max 3 µM
Method in brief: as §1

[6] = compound: CC(=O)c1c(C)c2cnc(Nc3ccc(N4CCNCC4)cn3)nc2n(C2CCCC2)c1=O [Palbociclib]; conditions: max 10 µM
Method in brief: as §1

[7] = compound: CC(C)n1c(=O)n(C)c2cnc3cc(F)c(-c4ccc(OCCCN5CCCCC5)nc4)cc3c21 [AZD1390]; conditions: max 0.3 µM
Method in brief: as §1

[8] = compound: CC1(C)CCC(CN2CCN(c3ccc(C(=O)NS(=O)(=O)c4ccc(NCC5CCOCC5)c([N+](=O)[O-])c4)c(Oc4cnc5[nH]ccc5c4)c3)CC2)=C(c2ccc(Cl)cc2)C1 [Venetoclax]; conditions: max 1 µM
Method in brief: as §1

[9] = compound: CC1=C(C(=CC=C1)Cl)NC(=O)C2=CN=C(S2)NC3=CC(=NC(=N3)C)N4CCN(CC4)CCO [Dasatinib]; conditions: max 2 µM
Method in brief: as §1

[10] = compound: CC1=CN2[C@@H](C1)C=NC3=CC(=C(C=C3C2=O)OC)OCCCCCOC4=C(C=C5C(=C4)N=C[C@@H]6CC(=CN6C5=O)C)OC [SG3199]; conditions: max 0.001 µM
Method in brief: as §1

[11] = compound: CCN(CCO)CCCOc1ccc2c(Nc3cc(CC(=O)Nc4cccc(F)c4)[nH]n3)ncnc2c1 [AZD2811]; conditions: max 1 µM
Method in brief: as §1

[12] = compound: CCc1c2c(nc3ccc(O)cc13)-c1cc3c(c(=O)n1C2)COC(=O)[C@]3(O)CC [SN-38]; conditions: max 0.3 µM
Method in brief: as §1

[13] = compound: CN(C)CCCOc1ccc(-c2ccc3ncc4c(c3c2)n(C2CCOCC2)c(=O)n4C)cn1 [AZD0156]; conditions: max 3 µM
Method in brief: as §1

[14] = compound: CN(CC[C@H](CSC1=CC=CC=C1)NC2=C(C=C(C=C2)S(=O)(=O)NC(=O)C3=CC=C(C=C3)N4CCC(CC4)[C@H](C5=CC=CC=C5C6=CC=C(C=C6)Cl)O)S(=O)(=O)C(F)(F)F)CCO [AZD4320]; conditions: max 1 µM
Method in brief: as §1

[15] = compound: COc1cc(Nc2ncc3c(n2)-c2ccc(Cl)cc2C(c2c(F)cccc2OC)=NC3)ccc1C(=O)O [Alisertib]; conditions: max 10 µM
Method in brief: as §1

[16] = compound: COc1cc([C@@H]2c3cc4c(cc3[C@@H](O[C@@H]3O[C@@H]5CO[C@@H](C)O[C@H]5[C@H](O)[C@H]3O)[C@H]3COC(=O)[C@H]23)OCO4)cc(OC)c1O [Etoposide]; conditions: max 10 µM
Method in brief: as §1

[17] = compound: COc1cc2ncnc(Nc3ccc(F)c(Cl)c3)c2cc1OCCCN1CCOCC1 [Gefitinib]; conditions: max 10 µM
Method in brief: as §1

[18] = compound: COc1cccc(OCCCN)c1-c1cc(Nc2cnc(C#N)cn2)n[nH]1 [Prexasertib]; conditions: max 1 µM
Method in brief: as §1

[19] = compound: COc1cccc2c1C(=O)c1c(O)c3c(c(O)c1C2=O)C[C@@](O)(C(=O)CO)C[C@@H]3O[C@H]1C[C@H](N)[C@H](O)[C@H](C)O1 [Doxorubicin]; conditions: max 1 µM
Method in brief: as §1

[20] = compound: COc1nnc2ccc(N3CCC(c4ccc(OCCN5CCN(C)C(=O)[C@H]5C)cc4)CC3)nn12 [AZD5153]; conditions: max 1 µM
Method in brief: as §1

[21] = compound: CS(=O)(=O)CCNCc1ccc(-c2ccc3ncnc(Nc4ccc(OCc5cccc(F)c5)c(Cl)c4)c3c2)o1 [Lapatinib]; conditions: max 10 µM
Method in brief: as §1

[22] = compound: C[C@@H](Nc1cc(F)cc(F)c1)c1cc(C(=O)N(C)C)cc2c(=O)cc(N3CCOCC3)oc12 [AZD8186]; conditions: max 10 µM
Method in brief: as §1

[23] = compound: C[C@@H](Oc1cc(-c2cnn(C3CCNCC3)c2)cnc1N)c1c(Cl)ccc(F)c1Cl [Crizotinib]; conditions: max 10 µM
Method in brief: as §1

[24] = compound: C[C@@H](c1ccc2nccn2c1)n1nnc2ncc(-c3cnn(C)c3)nc21 [Savolitinib]; conditions: max 1 µM
Method in brief: as §1

[25] = compound: C[C@@H]1COCCN1C2=NC(=NC(=C2)C3(CC3)[S@](=N)(=O)C)C4=C5C=CNC5=NC=C4 [AZD6738]; conditions: max 10 µM
Method in brief: as §1

[26] = compound: Cc1c2c(nn1C)CSCc1cc(n(C)n1)CSc1cc(c3ccccc3c1)OCCCc1c(C(=O)O)n(C)c3c-2c(Cl)ccc13 [AZD5991]; conditions: max 1 µM
Method in brief: as §1

[27] = compound: Cc1cc2ncnn2cc1Nc1ncc2c(n1)n(C1CCOCC1)c(=O)n2C [AZD7648]; conditions: max 10 µM
Method in brief: as §1

[28] = compound: Cc1nc(-c2cn3c(n2)-c2ccc(-c4cnn(C(C)(C)C(N)=O)c4)cc2OCC3)n(C(C)C)n1 [Taselisib]; conditions: max 10 µM
Method in brief: as §1

[29] = compound: Cn1cnc2c(F)c(Nc3ccc(Br)cc3Cl)c(C(=O)NOCCO)cc21 [Selumetinib]; conditions: max 10 µM
Method in brief: as §1

[30] = compound: N#Cc1cnc(Nc2cc(NC[C@H]3CNCCO3)c(C(F)(F)F)cn2)cn1 [SRA737]; conditions: max 10 µM
Method in brief: as §1

[31] = compound: NC1(c2ccc(-c3nc4ccn5c(=O)[nH]nc5c4cc3-c3ccccc3)cc2)CCC1 [MK-2206]; conditions: max 10 µM
Method in brief: as §1

[32] = compound: Nc1ccn([C@@H]2O[C@H](CO)[C@@H](O)C2(F)F)c(=O)n1 [Gemcitabine]; conditions: max 0.3 µM
Method in brief: as §1

[33] = compound: O=C(Nc1ccc2[nH]nc(-c3ccncc3)c2c1)[C@@H]1CCN(CC(=O)N2CCN(c3ccc(-c4ncccn4)cc3)CC2)C1; conditions: max 5 µM
Method in brief: as §1

[34] = compound: O=C(c1cc(Cc2n[nH]c(=O)c3ccccc23)ccc1F)N1CCN(C(=O)C2CC2)CC1 [Olaparib]; conditions: max 10 µM
Method in brief: as §1

[35] = compound: O=c1[nH]cc(F)c(=O)[nH]1 [5-Fluorouracil]; conditions: max 20 µM
Method in brief: as §1

| Cell Line | IC50, cell viability 72 h [1] | IC50, cell viability 72 h [2] | IC50, cell viability 72 h [3] | IC50, cell viability 72 h [4] | IC50, cell viability 72 h [5] | IC50, cell viability 72 h [6] | IC50, cell viability 72 h [7] | IC50, cell viability 72 h [8] | IC50, cell viability 72 h [9] | IC50, cell viability 72 h [10] | IC50, cell viability 72 h [11] | IC50, cell viability 72 h [12] | IC50, cell viability 72 h [13] | IC50, cell viability 72 h [14] | IC50, cell viability 72 h [15] | IC50, cell viability 72 h [16] | IC50, cell viability 72 h [17] | IC50, cell viability 72 h [18] | IC50, cell viability 72 h [19] | IC50, cell viability 72 h [20] | IC50, cell viability 72 h [21] | IC50, cell viability 72 h [22] | IC50, cell viability 72 h [23] | IC50, cell viability 72 h [24] | IC50, cell viability 72 h [25] | IC50, cell viability 72 h [26] | IC50, cell viability 72 h [27] | IC50, cell viability 72 h [28] | IC50, cell viability 72 h [29] | IC50, cell viability 72 h [30] | IC50, cell viability 72 h [31] | IC50, cell viability 72 h [32] | IC50, cell viability 72 h [33] | IC50, cell viability 72 h [34] | IC50, cell viability 72 h [35] |
| --- | --- | --- | --- | --- | --- | --- | --- | --- | --- | --- | --- | --- | --- | --- | --- | --- | --- | --- | --- | --- | --- | --- | --- | --- | --- | --- | --- | --- | --- | --- | --- | --- | --- | --- | --- |
| TK10 (Kidney Carcinoma) | > 10 µM | > 10 µM | 2.87 µM | > 1 µM | 0.715 µM | > 10 µM | > 0.3 µM | > 1 µM | 0.437 µM | > 0.001 µM | > 1 µM | > 0.3 µM | > 3 µM | > 1 µM | > 10 µM | > 10 µM | 9.99 µM | 0.159 µM | > 1 µM | 0.903 µM | 8.3 µM | > 10 µM | > 10 µM | > 1 µM | > 10 µM | > 1 µM | > 10 µM | 5.34 µM | > 10 µM | > 10 µM | > 10 µM | > 0.3 µM | > 5 µM | > 10 µM | > 20 µM |
| UACC-62 (Melanoma) | > 10 µM | > 10 µM | > 3 µM | 0.00406 µM | 0.598 µM | > 10 µM | > 0.3 µM | > 1 µM | > 2 µM | > 0.001 µM | > 1 µM | 0.0156 µM | > 3 µM | > 1 µM | > 10 µM | > 10 µM | > 10 µM | 0.136 µM | 0.373 µM | > 1 µM | > 10 µM | 3.99 µM | > 10 µM | > 1 µM | > 10 µM | 0.282 µM | > 10 µM | 4.61 µM | 0.284 µM | > 10 µM | > 10 µM | > 0.3 µM | 0.0846 µM | > 10 µM | > 20 µM |
| YH-13 (Glioblastoma) | > 10 µM | > 10 µM | > 3 µM | > 1 µM | 0.00382 µM | > 10 µM | > 0.3 µM | > 1 µM | 0.837 µM | > 0.001 µM | > 1 µM | 0.159 µM | > 3 µM | > 1 µM | > 10 µM | > 10 µM | > 10 µM | 0.0763 µM | > 1 µM | 0.534 µM | > 10 µM | 2.85 µM | > 10 µM | > 1 µM | > 10 µM | > 1 µM | > 10 µM | 2.99 µM | > 10 µM | > 10 µM | > 10 µM | 0.114 µM | > 5 µM | > 10 µM | > 20 µM |
